# pIC50, pKd: −log10 of the molar value. Calls of active or inactive are those of the source. The calls are words filed in the database; no cut-off is given here. Residues, ends and D or L forms follow the SMILES beside them. *: point of attachment. X1 = CC[C@@]1(OC(=O)CCCCCN2CC(=O)C(*)C2=O)C(=O)OCc2c1cc1n(c2=O)Cc2cc3ccccc3nc2-1; X2 = CC[C@@]1(OC(=O)CCS*)C(=O)OCc2c1cc1n(c2=O)Cc2cc3ccccc3nc2-1
# How the values were obtained:
# NCI-N87 = assay: Cytotoxicity against HER-positive human NCI-N87 cells assessed as inhibition of cell growth incubated for 48 hrs by MTT assay; type: functional, cell-based; settings: NCI-N87, 48 h
# MDA-MB-231 = assay: Cytotoxicity against HER-negative human MDA-MB-231 cells assessed as inhibition of cell growth incubated for 48 hrs by MTT assay; type: functional, cell-based; settings: MDA-MB-231, 48 h
# SK-OV-3 = assay: Cytotoxicity against HER-positive human SK-OV-3 cells assessed as inhibition of cell growth incubated for 48 hrs by MTT assay; type: functional, cell-based; settings: SK-OV-3, 48 h
# SK-BR-3 = assay: Cytotoxicity against HER-positive human SK-BR-3 cells assessed as inhibition of cell growth incubated for 48 hrs by MTT assay; type: functional, cell-based; settings: SK-BR-3, 48 h
# [1] = Cytotoxicity against human MCF-10A cells assessed as inhibition of cell growth incubated for 48 hrs by MTT assay; type: toxicity, cell-based
# [2] = target: T1, Receptor tyrosine-protein kinase erbB-2 (Homo sapiens, UniProt P04626); assay: Binding affinity to HER2 in HER-positive human SK-BR-3 cells assessed as increase in fluorescence intensity at 25 uM by Hoechst 33342 staining based confocal microscopic analysis; type: cell-based
# T1 sequence (P04626 whole entry): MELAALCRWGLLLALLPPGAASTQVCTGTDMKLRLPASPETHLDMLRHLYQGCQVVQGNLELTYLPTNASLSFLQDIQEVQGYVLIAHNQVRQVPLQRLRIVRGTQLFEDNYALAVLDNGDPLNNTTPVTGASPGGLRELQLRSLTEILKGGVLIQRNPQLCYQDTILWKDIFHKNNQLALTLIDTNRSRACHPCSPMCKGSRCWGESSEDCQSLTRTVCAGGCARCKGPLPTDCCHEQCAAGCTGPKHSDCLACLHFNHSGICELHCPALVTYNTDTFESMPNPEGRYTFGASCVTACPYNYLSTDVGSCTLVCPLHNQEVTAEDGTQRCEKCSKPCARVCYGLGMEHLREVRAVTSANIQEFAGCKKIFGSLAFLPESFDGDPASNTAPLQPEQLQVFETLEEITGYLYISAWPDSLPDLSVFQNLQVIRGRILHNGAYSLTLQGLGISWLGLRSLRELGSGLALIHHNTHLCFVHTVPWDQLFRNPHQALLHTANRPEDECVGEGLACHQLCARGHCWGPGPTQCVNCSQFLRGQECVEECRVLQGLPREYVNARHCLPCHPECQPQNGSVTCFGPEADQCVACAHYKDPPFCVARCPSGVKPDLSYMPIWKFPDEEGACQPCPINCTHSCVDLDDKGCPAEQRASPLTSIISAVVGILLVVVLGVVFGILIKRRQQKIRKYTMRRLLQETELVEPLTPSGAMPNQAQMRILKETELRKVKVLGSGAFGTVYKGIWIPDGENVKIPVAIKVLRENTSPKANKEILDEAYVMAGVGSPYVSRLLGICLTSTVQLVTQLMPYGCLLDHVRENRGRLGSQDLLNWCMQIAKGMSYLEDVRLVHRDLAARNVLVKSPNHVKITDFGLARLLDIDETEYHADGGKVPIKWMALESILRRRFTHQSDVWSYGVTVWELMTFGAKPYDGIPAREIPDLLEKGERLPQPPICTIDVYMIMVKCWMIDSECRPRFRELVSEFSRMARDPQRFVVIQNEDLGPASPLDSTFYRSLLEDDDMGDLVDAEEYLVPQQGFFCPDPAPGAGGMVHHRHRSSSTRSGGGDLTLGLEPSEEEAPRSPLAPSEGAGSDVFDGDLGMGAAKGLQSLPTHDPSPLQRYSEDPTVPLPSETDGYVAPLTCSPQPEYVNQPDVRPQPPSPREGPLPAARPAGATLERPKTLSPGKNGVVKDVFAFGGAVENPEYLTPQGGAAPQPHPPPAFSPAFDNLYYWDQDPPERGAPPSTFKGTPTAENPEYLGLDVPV
# [3] = Metabolic stability in Sprague-Dawley rat plasma assessed as drug degradation incubated for 120 mins by LC-MS/MS analysis; type: ADME, cell-free; settings: 2 h
# [4] = target: T1, Receptor tyrosine-protein kinase erbB-2; assay: Binding affinity to recombinant HER2 (unknown origin) assessed as dissociation constant by SPR analysis
# [5] = Metabolic stability in Sprague-Dawley rat plasma assessed as half life incubated for 120 mins by LC-MS/MS analysis; type: ADME, cell-free
# [6] = Drug uptake in tumor of nude mouse xenografted with HER2-positive human SK-BR-3 cells assessed as increase in fluorescence intensity at 25 uM, iv measured after 2 hrs by IVIS spectrum in vivo imaging analysis; type: ADME, organism-based, Neoplasm
compound,measurement,setting,value
CC[C@H](C)[C@H](NC(=O)[C@@H](N)CCCNC(=N)N)C(=O)N[C@@H](CCCCN)C(=O)N1CCC[C@H]1C(=O)N[C@@H](CCCNC(=N)N)C(=O)N[C@@H](CCCCN)C(=O)NCC(=O)N[C@@H](Cc1ccc(O)cc1)C(=O)N[C@H](C(=O)N[C@@H](CCCNC(=N)N)C(=O)NCC(=O)N[C@@H](CSC1C(=O)CN(CCCCCC(=O)O[C@]2(CC)C(=O)OCc3c2cc2n(c3=O)Cc3cc4ccccc4nc3-2)C1=O)C(=O)NCC(=O)N[C@@H](CSC1C(=O)CN(CCCCCC(=O)O[C@]2(CC)C(=O)OCc3c2cc2n(c3=O)Cc3cc4ccccc4nc3-2)C1=O)C(=O)NC(=O)C[C@H](NC(=O)CN)C(=O)N1CCC[C@H]1C(=O)N[C@@H](CC(N)=O)C(=O)N[C@@H](Cc1c[nH]c2ccccc12)C(=O)NCC(=O)N[C@@H](CCCNC(=N)N)C(=O)N[C@@H](CO)C(=O)N[C@@H](Cc1c[nH]c2ccccc12)C(=O)N[C@@H](Cc1ccc(O)cc1)C(=O)N[C@@H](CC(N)=O)C(=O)N[C@@H](CCC(N)=O)C(=O)N[C@@H](CCCNC(=N)N)C(=O)N[C@@H](Cc1ccccc1)C(=O)N[C@@H](CCCCN)C(N)=O)[C@@H](C)O (stereo not given in full),pIC50,NCI-N87,4.96
same,pIC50,MDA-MB-231,4.55
same,pIC50,SK-OV-3,4.69
same,pIC50,SK-BR-3,5.17
same,IC50 at 48 h,[1],25.2 µM
CC[C@H](C)[C@H](NC(=O)[C@@H](N)CCCNC(=N)N)C(=O)N[C@@H](CCCCN)C(=O)N1CCC[C@H]1C(=O)N[C@@H](CCCNC(=N)N)C(=O)N[C@@H](CCCCN)C(=O)NCC(=O)N[C@@H](Cc1ccc(O)cc1)C(=O)N[C@H](C(=O)N[C@@H](CCCNC(=N)N)C(=O)NCC(=O)N[C@@H](CSSCCC(=O)O[C@]1(CC)C(=O)OCc2c1cc1n(c2=O)Cc2cc3ccccc3nc2-1)C(=O)NCC(=O)N[C@@H](CC(N)=O)C(=O)N1CCC[C@H]1C(=O)N[C@@H](CC(N)=O)C(=O)N[C@@H](Cc1c[nH]c2ccccc12)C(=O)NCC(=O)N[C@@H](CCCNC(=N)N)C(=O)N[C@@H](CO)C(=O)N[C@@H](Cc1c[nH]c2ccccc12)C(=O)N[C@@H](Cc1ccc(O)cc1)C(=O)N[C@@H](CC(N)=O)C(=O)N[C@@H](CCC(N)=O)C(=O)N[C@@H](CCCNC(=N)N)C(=O)N[C@@H](Cc1ccccc1)C(=O)N[C@@H](CCCCN)C(N)=O)[C@@H](C)O (H-RIKPRKGYTRGC(X2)GNPNWGRSWYNQRFK-NH2),pIC50,NCI-N87,5.24
same,pIC50,MDA-MB-231,4.96
same,pIC50,SK-OV-3,5.20
same,pIC50,SK-BR-3,5.19
same,IC50 at 48 h,[1],20.4 µM
CC[C@H](C)[C@H](NC(=O)[C@H](CCCNC(=N)N)NC(=O)CNC(=O)[C@H](CS)NC(=O)CNC(=O)[C@H](CCCCN)NC(=O)[C@H](Cc1ccccc1)NC(=O)[C@H](CCCNC(=N)N)NC(=O)[C@H](CCC(N)=O)NC(=O)[C@H](CC(N)=O)NC(=O)[C@H](Cc1ccc(O)cc1)NC(=O)[C@H](Cc1c[nH]c2ccccc12)NC(=O)[C@H](CO)NC(=O)[C@H](CCCNC(=N)N)NC(=O)CNC(=O)[C@H](Cc1c[nH]c2ccccc12)NC(=O)[C@H](CC(N)=O)NC(=O)[C@@H]1CCCN1C(=O)[C@H](N)CC(=O)NC(=S)Nc1ccc2c(c1)C(=O)OC21c2ccc(O)cc2Oc2cc(O)ccc21)C(=O)N[C@@H](CCCCN)C(=O)N1CCC[C@@H]1C(=O)N[C@H](CCCNC(=N)N)C(=O)N[C@H](CCCCN)C(=O)NCC(=O)N[C@H](Cc1ccc(O)cc1)C(=O)N[C@@H](C(=O)N[C@H](CCCNC(=N)N)C(N)=O)[C@H](C)O,Activity,[2],Active
CC[C@H](C)[C@H](NC(=O)[C@@H](N)CCCNC(=N)N)C(=O)N[C@@H](CCCCN)C(=O)N1CCC[C@H]1C(=O)N[C@@H](CCCNC(=N)N)C(=O)N[C@@H](CCCCN)C(=O)NCC(=O)N[C@@H](Cc1ccc(O)cc1)C(=O)N[C@H](C(=O)N[C@@H](CCCNC(=N)N)C(=O)NCC(=O)N[C@@H](CSSCCC(=O)O[C@]1(CC)C(=O)OCc2c1cc1n(c2=O)Cc2cc3ccccc3nc2-1)C(=O)NCC(=O)N[C@@H](CSSCCC(=O)O[C@]1(CC)C(=O)OCc2c1cc1n(c2=O)Cc2cc3ccccc3nc2-1)C(=O)NC(=O)C[C@H](NC(=O)CN)C(=O)N1CCC[C@H]1C(=O)N[C@@H](CC(N)=O)C(=O)N[C@@H](Cc1c[nH]c2ccccc12)C(=O)NCC(=O)N[C@@H](CCCNC(=N)N)C(=O)N[C@@H](CO)C(=O)N[C@@H](Cc1c[nH]c2ccccc12)C(=O)N[C@@H](Cc1ccc(O)cc1)C(=O)N[C@@H](CC(N)=O)C(=O)N[C@@H](CCC(N)=O)C(=O)N[C@@H](CCCNC(=N)N)C(=O)N[C@@H](Cc1ccccc1)C(=O)N[C@@H](CCCCN)C(N)=O)[C@@H](C)O,pIC50,NCI-N87,5.13
same,pIC50,MDA-MB-231,4.94
same,pIC50,SK-OV-3,5.39
same,pIC50,SK-BR-3,5.83
same,IC50 at 48 h,[1],18.2 µM
CC[C@H](C)[C@H](NC(=O)[C@H](CCCNC(=N)N)NC(=O)CNC(=O)[C@H](CS)NC(=O)CNC(=O)[C@H](CCCCN)NC(=O)[C@H](Cc1ccccc1)NC(=O)[C@H](CCCNC(=N)N)NC(=O)[C@H](CCC(N)=O)NC(=O)[C@H](CC(N)=O)NC(=O)[C@H](Cc1ccc(O)cc1)NC(=O)[C@H](Cc1c[nH]c2ccccc12)NC(=O)[C@H](CO)NC(=O)[C@H](CCCNC(=N)N)NC(=O)CNC(=O)[C@H](Cc1c[nH]c2ccccc12)NC(=O)[C@H](CC(N)=O)NC(=O)[C@@H]1CCCN1C(=O)[C@@H](N)CC(N)=O)C(=O)N[C@@H](CCCCN)C(=O)N1CCC[C@H]1C(=O)N[C@@H](CCCNC(=N)N)C(=O)N[C@@H](CCCCN)C(=O)NCC(=O)N[C@@H](Cc1ccc(O)cc1)C(=O)N[C@H](C(=O)N[C@@H](CCCNC(=N)N)C(=O)O)[C@@H](C)O (H-NPNWGRSWYNQRFKGCGRIKPRKGYTR-OH),Stability,[3],Unstable
same,pKd,[4],6.82
same,half-life,[5],15 min
CC[C@H](C)[C@H](NC(=O)[C@@H](N)CCCNC(=N)N)C(=O)N[C@@H](CCCCN)C(=O)N1CCC[C@H]1C(=O)N[C@@H](CCCNC(=N)N)C(=O)N[C@@H](CCCCN)C(=O)NCC(=O)N[C@@H](Cc1ccc(O)cc1)C(=O)N[C@H](C(=O)N[C@@H](CCCNC(=N)N)C(=O)NCC(=O)N[C@@H](CSC1C(=O)CN(CCCCCC(=O)O[C@]2(CC)C(=O)OCc3c2cc2n(c3=O)Cc3cc4ccccc4nc3-2)C1=O)C(=O)NCC(=O)N[C@@H](CC(N)=O)C(=O)N1CCC[C@H]1C(=O)N[C@@H](CC(N)=O)C(=O)N[C@@H](Cc1c[nH]c2ccccc12)C(=O)NCC(=O)N[C@@H](CCCNC(=N)N)C(=O)N[C@@H](CO)C(=O)N[C@@H](Cc1c[nH]c2ccccc12)C(=O)N[C@@H](Cc1ccc(O)cc1)C(=O)N[C@@H](CC(N)=O)C(=O)N[C@@H](CCC(N)=O)C(=O)N[C@@H](CCCNC(=N)N)C(=O)N[C@@H](Cc1ccccc1)C(=O)N[C@@H](CCCCN)C(N)=O)[C@@H](C)O (stereo not given in full) (H-RIKPRKGYTRGC(X1)GNPNWGRSWYNQRFK-NH2),pIC50,NCI-N87,4.81
same,pIC50,MDA-MB-231,4.64
same,pIC50,SK-OV-3,4.61
same,pIC50,SK-BR-3,4.59
same,IC50 at 48 h,[1],35.2 µM
"CC[C@H](C)[C@H](NC(=O)[C@H](CCCNC(=N)N)NC(=O)CNC(=O)[C@H](CS)NC(=O)CNC(=O)[C@H](CCCCN)NC(=O)[C@H](Cc1ccccc1)NC(=O)[C@H](CCCNC(=N)N)NC(=O)[C@H](CCC(N)=O)NC(=O)[C@H](CC(N)=O)NC(=O)[C@H](Cc1ccc(O)cc1)NC(=O)[C@H](Cc1c[nH]c2ccccc12)NC(=O)[C@H](CO)NC(=O)[C@H](CCCNC(=N)N)NC(=O)CNC(=O)[C@H](Cc1c[nH]c2ccccc12)NC(=O)[C@H](CC(N)=O)NC(=O)[C@@H]1CCCN1C(=O)[C@@H](N)CC(=O)NC(=S)Nc1ccc2c(c1)C(=O)OC21c2ccc(O)cc2Oc2cc(O)ccc21)C(=O)N[C@@H](CCCCN)C(=O)N1CCC[C@H]1C(=O)N[C@@H](CCCNC(=N)N)C(=O)N[C@@H](CCCCN)C(=O)NCC(=O)N[C@@H](Cc1ccc(O)cc1)C(=O)N[C@H](C(=O)N[C@@H](CCCNC(=N)N)C(=O)O)[C@@H](C)O (HELM PEPTIDE1{D.P.N.W.G.R.S.W.Y.N.Q.R.F.K.G.C.G.R.I.K.P.R.K.G.Y.T.R}|CHEM1{[O=C1OC2(c3ccc(O)cc3Oc3cc(O)ccc32)c2ccc(NC(=S)N[*:1])cc21]}$PEPTIDE1,CHEM1,1:R3-1:R1$$$V2.0)",Drug uptake,[6],Active
same,Activity,[2],Active
CC[C@H](C)[C@H](NC(=O)[C@H](CCCNC(=N)N)NC(=O)CNC(=O)[C@H](CS)NC(=O)CNC(=O)[C@H](CS)NC(=O)CNC(=O)[C@H](CCCCN)NC(=O)[C@H](Cc1ccccc1)NC(=O)[C@H](CCCNC(=N)N)NC(=O)[C@H](CCC(N)=O)NC(=O)[C@H](CC(N)=O)NC(=O)[C@H](Cc1ccc(O)cc1)NC(=O)[C@H](Cc1c[nH]c2ccccc12)NC(=O)[C@H](CO)NC(=O)[C@H](CCCNC(=N)N)NC(=O)CNC(=O)[C@H](Cc1c[nH]c2ccccc12)NC(=O)[C@H](CC(N)=O)NC(=O)[C@@H]1CCCN1C(=O)[C@@H](N)CC(N)=O)C(=O)N[C@@H](CCCCN)C(=O)N1CCC[C@H]1C(=O)N[C@@H](CCCNC(=N)N)C(=O)N[C@@H](CCCCN)C(=O)NCC(=O)N[C@@H](Cc1ccc(O)cc1)C(=O)N[C@H](C(=O)N[C@@H](CCCNC(=N)N)C(=O)O)[C@@H](C)O (H-NPNWGRSWYNQRFKGCGCGRIKPRKGYTR-OH),Stability,[3],Unstable
same,pKd,[4],6.41
same,half-life,[5],15 min
CC[C@H](C)[C@H](NC(=O)[C@H](CCCNC(=N)N)NC(=O)CNC(=O)[C@H](CS)NC(=O)CNC(=O)[C@H](CCCCN)NC(=O)[C@H](Cc1ccccc1)NC(=O)[C@H](CCCNC(=N)N)NC(=O)[C@H](CCC(N)=O)NC(=O)[C@H](CC(N)=O)NC(=O)[C@H](Cc1ccc(O)cc1)NC(=O)[C@H](Cc1c[nH]c2ccccc12)NC(=O)[C@H](CO)NC(=O)[C@H](CCCNC(=N)N)NC(=O)CNC(=O)[C@H](Cc1c[nH]c2ccccc12)NC(=O)[C@H](CC(N)=O)NC(=O)[C@@H]1CCCN1C(=O)[C@@H](N)CC(=O)NC(=S)Nc1ccc2c(c1)C(=O)OC21c2ccc(O)cc2Oc2cc(O)ccc21)C(=O)N[C@@H](CCCCN)C(=O)N1CCC[C@H]1C(=O)N[C@@H](CCCNC(=N)N)C(=O)N[C@@H](CCCCN)C(=O)NCC(=O)N[C@@H](Cc1ccc(O)cc1)C(=O)N[C@H](C(=O)N[C@@H](CCCNC(=N)N)C(N)=O)[C@@H](C)O,Drug uptake,[6],Active
